Results: patent US12479834B2, “Phenol compound or salt thereof” (TAIHO PHARMACEUTICAL CO., LTD., priority 2019, dated 2025)

Key:
G12C K-Ras4B (1-169) = molecular target: T1, G12C K-Ras4B (1-169) (Homo sapiens, UniProt P01116, G12C); assay: Binding to KRAS G12C mutant, compound binding rate by LC-MS; conditions: final compound concentration 2 μM, 1 μM protein, 2 hours at 25° C.
T1 construct: G12C K-Ras4B (1-169) protein, which was a KRAS G12C mutant; His tag (N, cleaved yes); made in house; host or cells: E. coli BL21 (DE3)
Text: K-Ras4B (1-169) protein was expressed in E. coli strain BL21 (DE3) by synthesizing a nucleotide sequence encoding the amino acid sequence represented by GenPept ID NP_004976 as a sequence optimized for E. coli by use of GeneArt Technology (Life Technologies Corp.) such that the protein was N-terminally His-tagged and fused with a TEV protease recognition sequence (ENLYFQG). The expressed His-tagged K-Ras4B (1-169) was purified through a Ni column, then cleaved at its tag with N-terminally His-tagged TEV protease, and passed through a Ni column again to recover a flow-through fraction, which was further purified by anion-exchange chromatography to obtain the protein. G12C K-Ras4B (1-169) protein, which was a KRAS G12C mutant, was obtained in the same way as in the K-Ras4B(1-169) protein except that glycine at position 12 of the amino acid sequence represented by GenPept ID NP_004976 was mutated to cysteine.
The K-Ras4B (1-169) protein and the G12C K-Ras4B (1-169) protein were mixed and diluted with a buffer solution (1×TBS and 0.1 mM TCEP) to prepare a protein solution containing 1 μM each of the proteins. Each test compound was dissolved at 10 mM in DMSO and further diluted 10-fold with DMSO to make a 1 mM solution. Then, the solution was diluted 5-fold with DMSO to make a 200 μM solution. The 200 μM solution was further diluted 5-fold to make a […] solution. 1 μL of the 40 μM test compound was added to 19 μL of the 1 μM protein solution such that the final compound concentration was 2 μM. The mixture was stored for 2 hours in an incubator of 25° C., and the reaction was terminated by the addition of 80 μL of a 1×TBS solution containing 0.2% formic acid, followed by LC-MS measurement.
The LC-MS measurement was performed by using Xevo G2-S Q-Tof manufactured by Waters Corp., performing reverse-phase chromatography with a desalting column, and obtaining mass spectra of positive ions by electrospray. For the mass spectra, spectra of polyvalent ions were collectively converted to molecular weights by the MaxEnt technique using OpenLynx software, and then, a compound binding rate was obtained from the ratio of […].
The binding rates of test compounds having a final compound concentration of 2 μM for G12C K-Ras4B (1-169) are shown in the table below. The binding rate for G12C K-Ras4B (1-169) is rated “A” for 80% or more, “B” for 60% or more and less than 80%, “C” for 40% or more and less than 60%, “D” for 20% or more and less than 40%, and “E” for less than 20%.

KRAS G12C mutant = molecular target: T2, KRAS G12C mutant (Homo sapiens, UniProt P01116, G12C); assay: Inhibition of SOS1-mediated nucleotide (GDP-GTP) exchange reaction of KRAS G12C mutant, BODIPY FL GDP fluorescence; format: biochemical; conditions: preincubated 25° C. 4 hours with 25 nM KRAS G12C bound with BODIPY FL GDP; SOS1 100 nM, GppNHp 1 μM, 30 minutes
T2 construct: 50 μM G12C K-Ras4B (1-169) protein and 1 mM BODIPY® FL GDP; His tag (N, cleaved yes); made in house; host or cells: E. coli BL21 (DE3)
Text: SOS1 protein was expressed in E. coli strain BL21 (DE3) by synthesizing a nucleotide sequence encoding the amino acid sequence represented by GenPept ID NP_005624 as a sequence optimized for E. coli by use of GeneArt Technology (Life Technologies Corp.) such that the protein was N-terminally His-tagged and fused with a TEV protease recognition sequence (ENLYFQG). The expressed His-tagged SOS1 (564-1049) was purified through a Ni column, then cleaved at its tag with N-terminally His-tagged TEV protease, and passed through a Ni column again to recover a flow-through fraction to obtain the protein.
Each compound was studied for its inhibitory effect on the exchange reaction of GDP into GppNHp in BODIPY® FL bound with the KRAS G12C mutant by fluorescence measurement using the G12C K-Ras4B (1-169) protein and the SOS1 protein.
For the preparation of the KRAS G12C mutant bound with BODIPY® FL GDP, first, 50 μM G12C K-Ras4B (1-169) protein and 1 mM BODIPY® FL GDP (Invitrogen Corp., G22360) were incubated for 1 hour in a buffer solution (20 mM Tris-HCl (pH 7.5), 50 mM NaCl, and 1 mM DTT) in ice in the presence of 2.5 mM EDTA. Then, MgCl2 was added thereto at a final concentration of 10 mM, then the mixture was incubated at room temperature for 30 minutes, and then, the protein was passed through a NAP-5 column for removal of free nucleotides and used for compound evaluation.
For the measurement of the inhibitory activity of compounds against nucleotide exchange reaction, first, the compound of the present invention was serially diluted with DMSO. Subsequently, the serially diluted solution of the compound of the present invention in DMSO (final concentration of DMSO: 5%) and the KRAS G12C mutant (25 nM) bound with BODIPY® FL GDP were added into a reaction buffer solution (20 mM Tris-HCl (pH 7.5), 100 mM NaCl, 1 mM MgCl2, 2 mM DTT, and 0.1% Tween 20), and the mixture was preincubated at 25° C. for 4 hours. Then, Son of Sevenless Homolog 1 (SOS1, amino acid region: 564-1049) and GppNHp (GMPPNP, Jena Bioscience GmbH, NU-401-50) were added thereto at final concentrations of 100 nM and 1 μM, respectively, and the mixture was reacted for 30 minutes. The change in fluorescence intensity of BODIPY® FL (excitation wavelength: 485 nm, fluorescence wavelength: 520 nm) between immediately after the start of reaction and after 30 minutes from the start of reaction was standardized, and then, the compound concentration at which 50% inhibition was achieved was calculated as IC50 (nM) when the signal value for only DMSO was defined as 0% inhibition and the signal value for no addition of GppNHp was defined as 100% inhibition.

| binding rate for G12C K-Ras4B (1-169) (G12C K-Ras4B (1-169)) | IC50 (KRAS G12C mutant) [nM] | SMILES |
| --- | --- | --- |
| C (40% or more and less than 60%) | 201 | C=CC(=O)N1CC(N(C)C(=O)c2cnc(CNc3cc(C(C)(C)C)c(Cl)cc3O)o2)C1 [Example 28, N-(1-Acryloylazetidin-3-yl)-2-(((5-(tert-butyl)-4-chloro-2-hydroxyphenyl)amino)methyl)-N-methyloxazole-5-carboxamide] |
| C (40% or more and less than 60%) | 247 | C=CC(=O)N1CC(N(C)C(=O)c2cnc(CNc3cc(C(C)(C)C)c(Cl)cc3O)s2)C1 [Example 31, N-(1-Acryloylazetidin-3-yl)-2-(((5-(tert-butyl)-4-chloro-2-hydroxyphenyl)amino)methyl)-N-methylthiazole-5-carboxamide] |
| D (20% or more and less than 40%) | 366 | C=CC(=O)N1CC(NC(=O)c2cnc(CNc3cc(CCC)c(Cl)cc3O)n2C)C1 [Example 64, N-(1-Acryloylazetidin-3-yl)-2-(((4-chloro-2-hydroxy-5-propylphenyl)amino)methyl)-1-methyl-1H-imidazole-5-carboxamide] |
| A (80% or more) | 353 | C=CC(=O)N1CC(NC(=O)c2ccc(CNc3cc(C(C)(C)C)c(Br)cc3O)o2)C1 [Example 65, N-(1-Acryloylazetidin-3-yl)-5-(((4-bromo-5-(tert-butyl)-2-hydroxyphenyl)amino)methyl)furan-2-carboxamide] |
| D (20% or more and less than 40%) | 3970 | C=CC(=O)N1CC(NC(=O)c2ccc(CNc3cc(C(C)C)c(Cl)cc3O)o2)C1 [Example 48, N-(1-Acryloylazetidin-3-yl)-5-(((4-chloro-2-hydroxy-5-isopropylphenyl)amino)methyl)furan-2-carboxamide] |
| C (40% or more and less than 60%) | 763 | C=CC(=O)N1CC(NC(=O)c2ccc(CNc3cc(C4CC4(F)F)c(Cl)cc3O)o2)C1 (centres unmarked) [Example 51, N-(1-Acryloylazetidin-3-yl)-5-(((4-chloro-5-(2,2-difluorocyclopropyl)-2-hydroxyphenyl)amino)methyl)furan-2-carboxamide] |
| D (20% or more and less than 40%) | 2070 | C=CC(=O)N1CC(NC(=O)c2cncc(CNc3cc(C(C)(C)C)c(Cl)cc3O)c2)C1 [Example 17, N-(1-Acryloylazetidin-3-yl)-5-(((5-(tert-butyl)-4-chloro-2-hydroxyphenyl)amino)methyl)nicotinamide] |
| A (80% or more) | 58 | C=CC(=O)N1CC(NC(=O)c2csc(CNc3cc(C(C)(C)C)c(Cl)cc3O)n2)C1 [Example 8, N-(1-Acryloylazetidin-3-yl)-2-(((5-(tert-butyl)-4-chloro-2-hydroxyphenyl)amino)methyl)thiazole-4-carboxamide] |
| B (60% or more and less than 80%) | 808 | C=CC(=O)N1CC(NC(=O)c2oc(CNc3cc(C(C)(C)C)c(Cl)cc3O)cc2C)C1 [Example 21, N-(1-Acryloylazetidin-3-yl)-5-(((5-(tert-butyl)-4-chloro-2-hydroxyphenyl)amino)methyl)-3-methylfuran-2-carboxamide] |
| C (40% or more and less than 60%) | 420 | C=CC(=O)N1CC(NC(=O)c2cnc(CNc3cc(C(F)(F)F)c(Cl)cc3O)n2C)C1 [Example 54, N-(1-Acryloylazetidin-3-yl)-2-(((4-chloro-2-hydroxy-5-(trifluoromethyl)phenyl)amino)methyl)-1-methyl-1H-imidazole-5-carboxamide] |
| B (60% or more and less than 80%) | 89 | C=CC(=O)N1CC(NC(=O)c2cnc(CNc3cc(C(C)(C)C)c(C=C)cc3O)n2C)C1 [Example 69, N-(1-Acryloylazetidin-3-yl)-2-(((5-(tert-butyl)-2-hydroxy-4-vinylphenyl)amino)methyl)-1-methyl-1H-imidazole-5-carboxamide] |
| C (40% or more and less than 60%) | 954 | C=CC(=O)N1CC(NC(=O)c2ncc(CNc3cc(C(C)(C)C)c(Cl)cc3O)o2)C1 [Example 12, N-(1-Acryloylazetidin-3-yl)-5-(((5-(tert-butyl)-4-chloro-2-hydroxyphenyl)amino)methyl)oxazole-2-carboxamide] |
| A (80% or more) | 420 | C=CC(=O)N1CC(NC(=O)c2nc(CNc3cc(C(C)(C)C)c(Cl)cc3O)co2)C1 [Example 14, N-(1-Acryloylazetidin-3-yl)-4-(((5-(tert-butyl)-4-chloro-2-hydroxyphenyl)amino)methyl)oxazole-2-carboxamide] |
| A (80% or more) | 193 | CN(C)C/C=C/C(=O)N1CC(N(C)C(=O)c2ccc(CNc3cc(C(C)(C)C)c(Cl)cc3O)o2)C1 [Example 87, (E)-5-(((5-(tert-Butyl)-4-chloro-2-hydroxyphenyl)amino)methyl)-N-(1-(4-(dimethylamino)but-2-enoyl)azetidin-3-yl)-N-methylfuran-2-carboxamide] |
| E (less than 20%) | 1690 | C=CC(=O)N1CC(N(C)C(=O)c2cccc(CNc3cc(C(C)(C)C)c(Cl)cc3O)n2)C1 [Example 30, N-(1-Acryloylazetidin-3-yl)-6-(((5-(tert-butyl)-4-chloro-2-hydroxyphenyl)amino)methyl)-N-methylpicolinamide] |

| SMILES | binding rate for G12C K-Ras4B (1-169) (G12C K-Ras4B (1-169)) | IC50 (KRAS G12C mutant) [nM] |
| --- | --- | --- |
| C=CC(=O)N1CC(NC(=O)c2c(C)nc(CNc3nc([Si](C)(C)C)c(Cl)cc3O)n2C)C1 [Example 85, N-(1-Acryloylazetidin-3-yl)-2-(((5-chloro-3-hydroxy-6-(trimethylsilyl)pyridin-2-yl)amino)methyl)-1,4-dimethyl-1H-imidazole-5-carboxamide] | C (40% or more and less than 60%) | 39 |
